Four compounds from article PMC3171603 (Bioorganic & medicinal chemistry letters, 2011) can be followed below.

Where only a bound is given, the exact number is not on record here.

Data set [1] can be described thus: Cytotoxicity: growth inhibition of uninfected TZM-bl cells. In kind it is cell-based. The settings on record: human.
A further data set has as its system HIV-1 NL4-3. Briefly: HIV-1 infectivity assay. In kind it is cell-based. The settings on record: for anti-HIV activity: TZM-bl cells, statement in words.

For orientation: CC50 means the concentration at which the toxic effect on the cells reaches its halfway point. Read a low CC50 as harm at low concentration. `Cc1cc(=O)oc2c3c(ccc12)SC(C)(C)[C@H](OC(=O)[C@@]12CC[C@@](C)(C(=O)O1)C2(C)C)[C@@H]3OC(=O)[C@@]12CC[C@@](C)(C(=O)O1)C2(C)C` [Compound 8a, 4-Methyl-1′-thia-DCK]: in data set [1], the half-maximal cytotoxic concentration (CC50) is greater than 30.6 µM. Regarding `CCc1cc(=O)c2ccc3c(c2o1)[C@H](OC(=O)C12CCC(C)(C(=O)O1)C2(C)C)[C@H](OC(=O)C12CCC(C)(C(=O)O1)C2(C)C)[C@@H](C)S3` (some centres unmarked) [Compound 6b], the anti-HIV activity entry with HIV-1 NL4-3 was “remarkably reduced or even completely abolished”. The same measure, in the same setting: the entry for `Cc1cc(=O)oc2c3c(ccc12)SC(C)(C)[C@@H](OC(=O)[C@@]12CC[C@@](C)(C(=O)O1)C2(C)C)[C@H]3OC(=O)[C@@]12CC[C@@](C)(C(=O)O1)C2(C)C` [Compound 8b] is “remarkably reduced or even completely abolished”. Usually EC50 stands for the concentration needed to bring the measured effect to its halfway point. Read a high EC50 as weaker potency. As to `CCc1cc(=O)c2ccc3c(c2o1)[C@@H](OC(=O)C12CCC(C)(C(=O)O1)C2(C)C)[C@@H](OC(=O)C12CCC(C)(C(=O)O1)C2(C)C)C(C)(C)O3` (some centres unmarked) [Compound 2-Ethyl-DCP, 2-ethyl-DCP, reference compound], the midpoint of cytotoxicity in data set [1], the CC50, lay at 14.3 µM. Further, the EC50 with HIV-1 NL4-3 (Human immunodeficiency virus 1, NL43, TZM-bl) came out at 0.12 µM.
